The text below walks through data of US20180171304A1, “CONTINUOUSLY BIOPRINTED MULTILAYER TISSUE STRUCTURE” (ASPECT BIOSYSTEMS LTD., priority 2015, published 2018).

The test concerns muscle tube. As to conditions: tube cultured for 14 days; contraction gradual over a 40 minute time period; FIG. 2.

Excerpt: In one embodiment, described herein are multi-layered tubes of muscle tissue. The tubes are created using a layer-by-layer deposition process by which muscle cells are dispersed within a solidified biocompatible matrix and bioprinted in a continuous fiber. In one embodiment, the fiber is deposited in a ring-like pattern to form a layer. These layers are stacked to form tubes, the height of which may be varied in a controlled way by changing the number of layers. Preferably, the matrix composition is physiologically compatible such that it allows the muscle cells to fully differentiate into a contractile phenotype. At the time of bioprinting, the tube is not contractile. […]
After bioprinting, the muscle structure must be submersed in cell culture media and placed in a cell culture incubator with temperature and carbon dioxide level control. […] In the preferred embodiment contraction and relaxation are measured by visual observation of changes in the diameter of the tube. […] Alternatively, a camera with an appropriate level of magnification could be positioned above the smooth muscle tube such that video footage of the tube from a top down perspective is recorded. […] The change in area, radius, diameter or circumference of the muscle tube may be quantified. […]

For `NCCc1c[nH]cn1` [histamine], the “contraction of muscle tube (smaller diameter in contracted state)” value is “initiate contraction”.
